The source of these data is patent publication US6113907A, “Pharmaceutical grade St. John's Wort” (priority 1997, dated 2000).

One data set in a line: stability. It counts as physicochemical. The note with it: our data. From the text:
Some botanicals, such as St. John's Wort, are both temperature and light sensitive. For this type of botanical the material should be dry packed with a refrigerant or shipped under refrigeration and protected from light and air. […] Stability (in absence of air) was increased to six months in a preparation extracted with ethanol.
Phloroglucinola include hyperforin (prenylated derivative of phloroglucinol), adhyperforin (similar to the bitter principle of hops, adhumulone).

In the next data set the test system is herpes simplex. The note with it: cited from earlier work.
In data set [1] the test system is human immunodeficiency virus type 1 (HIV-1). The note with it: cited from earlier work.
For another data set, the system named is murine cytomegalovirus. To be noted: cited from earlier work.
For a further data set, the system named is Sindbis virus. To be noted: cited from earlier work.
For data set [2], the system named is equine infectious anemia virus. To be noted: cited from earlier work.
A further data set deals with protein kinase C. The note with it: cited from earlier work.
Another data set addresses monoamine oxidase B. Briefly: MAO-B enzyme activity, rat liver mitochondrial fraction, [3H]dopamine. It counts as biochemical. To be noted: read-out: MAOB (concentration). The method, then: MAO-B enzyme activity is assayed in a mitochondrial fraction isolated from rat liver by differential centrifugation. […] Following 20 minutes incubation at 37° C., the reaction is terminated by the addition of 5% HCl. The radioactivity of [^3 H]dopamine in an extraction was determined.

In data set [3] the target is T1, serotonin transporter (Rattus norvegicus, UniProt P31652).
T1 construct: Cerebral cortical membranes derived from male Wistar rats; from tissue; host or cells: cerebral cortical membranes of male Wistar rats
T1 sequence (P31652 whole entry): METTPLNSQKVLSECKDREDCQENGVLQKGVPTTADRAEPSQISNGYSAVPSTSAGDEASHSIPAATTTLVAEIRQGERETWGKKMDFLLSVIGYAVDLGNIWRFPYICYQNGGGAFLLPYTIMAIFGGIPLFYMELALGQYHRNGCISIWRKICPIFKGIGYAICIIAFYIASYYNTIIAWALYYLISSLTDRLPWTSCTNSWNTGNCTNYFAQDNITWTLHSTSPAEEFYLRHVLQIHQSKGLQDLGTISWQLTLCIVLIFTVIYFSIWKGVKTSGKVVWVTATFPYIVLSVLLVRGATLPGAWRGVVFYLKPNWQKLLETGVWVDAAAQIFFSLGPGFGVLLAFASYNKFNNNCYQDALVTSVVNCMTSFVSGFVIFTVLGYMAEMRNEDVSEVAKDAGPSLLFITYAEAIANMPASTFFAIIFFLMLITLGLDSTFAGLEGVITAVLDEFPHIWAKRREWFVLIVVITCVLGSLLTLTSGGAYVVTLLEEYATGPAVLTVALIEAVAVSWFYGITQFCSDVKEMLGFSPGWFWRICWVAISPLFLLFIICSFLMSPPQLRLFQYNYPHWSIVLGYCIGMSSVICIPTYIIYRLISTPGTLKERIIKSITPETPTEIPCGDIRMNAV
Briefly: serotonin transporter assay, [125I]-RTI-121, rat cerebral cortical membranes. The data set is classed as binding.

In another data set the test system is adenosine receptor. Description: adenosine receptor non-selective (ADNS), [3H] NECA, bovine striatal membranes. It counts as binding. To be noted: for ADNS: 10^-4, 60 min, 100 µM. The method, then: To determine the inhibitory activity of the substances for the dopamine receptor (dp) the following assay was preformed. A partial receptor preparation was prepared from bovine striatal membranes using [^3 H] spiperone as the ligand at a final concentration of 0.3 nM. To determine non-specific binding cold spiperone was tested at 1 μM. The reactions were carried out in 50 mM Tris-HCl (pH 7.7) containing 120 mM NaCl, 5 mM KCl, 2 mM CaCl2 and 1 mM MgCl2 at 37° C. for 60 minutes. […] The inhibitory properties of the substances for binding of ligand to the adenosine receptor (ADNS) was measured using a partially purified receptor preparation made from bovine striatal membranes. The radioligand used was [^3 H] 5'-N-ethylcarboxyamidoadenosine (NECA) at a final ligand concentration of 4 nM. Non-specific binding was determined in the presence of 10 μM NECA. The reactions were carried out in 50 mM Tris-HCL (pH 7.7) for 60 minutes at 25° C. […] To measure the inhibitory activity of the substances for the opiate receptor (Opiate) receptor was partially purified from rat forebrains. [^3 H] naloxone at 1 nM as the ligand used. Non-specific binding was determined in the presence of 1 μM of naloxone. The assays were carried out in 50 mM Tris-HCl (pH 7.4) at 25° C. for 90 minutes. […] The neuronal nicotinic receptor (Nicotinic Neuronal) was assayed using receptors partially purified from rat cortical membranes. The radioligand used was [^3 H] N-methylcarbamylcholine iodide at a final ligand concentration of 5 nM. Non-specific binding was determined in the presence of 1 μM nicotine sulfate. The assay reactions were carried out in 50 mM Tris-HCl (pH 7.4) containing 120 mM NaCl, 5 mM KCl, 2 mM CaCl2, 1 mM MgCl2, and 3 μM atropine sulfate at 4° C. for 60 minutes. […] To determine how the substances inhibit the corticotropin releasing factor (CRF) partially purified receptor from rat cortical membranes was used as the receptor preparation. […] Tyr-° CRF at a final ligand concentration of 0.1 nM. Non-specific binding was determined in the presence of 1 μM Tyr-° CRF. The reactions were carried out in 50 mM HEPES containing 10 mM MgCl2, 2 mM EGTA, 0.12 TIU/ml aprotinin and 0.3% BSA at 25° C. for 120 minutes. The reaction is terminated by centrifugation in a Sorvall centrifuge for 15 minutes at 4° C.

Data set [4] relates to muscarinic receptor for the central nervous system. Description: muscarinic receptor for the central nervous system (M1 Central), [3H] QNB, rat cortical membranes. The data set is classed as binding. To be noted: 10^-4; 100 µM. The method, then:
Fourteen additional bioassays were preformed on either extracts, fractions or reference compounds for this botanical. To measure inhibition of [^3 H] PK11195 to the benzodiazepine receptor (BDZ) a partially purified receptor preparation was made from rat kidney membranes. The final radioactive ligand concentration was 1 nM and non-specific binding was measured using 200 nM cold PK11195. The substances, receptor and ligand were reacted in 50 mM Tris-HCL (pH 7.7) at 0-4° C. for 60 minutes. The reaction was terminated by rapid filtration of the samples through glass fiber filters. […] The inhibition of [^3 H] pinrenzepine to the muscarinic M1 receptor (M1) by the substances was measured using a partially purified receptor from bovine striatal membranes. The final hot ligand concentration was 1 nM and non-specific binding was determined in the presence of 100 nM atropine. […] The reactions were terminated by rapid vacuum filtration of the reaction mixture through glass fiber filters. […] To assay for biological activity for the muscarinic receptor for the central nervous system, receptor was partially purified from rat cortical membranes. […] Non-specific binding was determined in the presence of 100 nM atropine. […] Non-specific binding was determined using 1 mM NMDA. […] Non-specific binding was determined using 100 μM AMPA.

Another data set deals with T2, MAOA (Rattus norvegicus, UniProt P21396).
T2 sequence (P21396 1-526): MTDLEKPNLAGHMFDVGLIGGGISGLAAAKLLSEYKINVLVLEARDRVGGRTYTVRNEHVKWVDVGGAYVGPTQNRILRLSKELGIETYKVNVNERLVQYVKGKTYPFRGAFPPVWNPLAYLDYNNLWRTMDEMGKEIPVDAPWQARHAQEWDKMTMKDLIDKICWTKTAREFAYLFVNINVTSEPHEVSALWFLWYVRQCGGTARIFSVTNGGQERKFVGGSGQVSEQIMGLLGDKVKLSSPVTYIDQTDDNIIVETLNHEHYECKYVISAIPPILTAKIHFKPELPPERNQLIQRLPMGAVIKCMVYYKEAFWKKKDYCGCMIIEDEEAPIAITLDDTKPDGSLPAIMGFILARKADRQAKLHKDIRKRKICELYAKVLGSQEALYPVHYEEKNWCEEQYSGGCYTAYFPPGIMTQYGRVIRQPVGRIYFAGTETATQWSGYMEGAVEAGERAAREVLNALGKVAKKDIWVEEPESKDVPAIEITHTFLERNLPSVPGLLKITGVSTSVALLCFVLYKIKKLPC
Description: MAOA enzymatic activity, rat liver mitochondrial membranes, [14C] serotonin. The data set is classed as biochemical. On the set-up: using rat liver mitochondrial membranes as a partially purified enzyme source; from tissue; host or cells: rat liver mitochondrial membranes. The method, then:
The inhibition of MAOA enzymatic activity (MAOA) was determined using rat liver mitochondrial membranes as a partially purified enzyme source. […] The reaction involves the conversion of the substrate to [^14 C] 5-hydroxyl indoleacetaldehyde+NH4^+. In brief, the enzyme is preincubated with the substances and the subtype specific blocker deprenyl (at 300 nM) for 60 minutes at 37° C. in 100 mM KPO4 (pH 7.2). Substrate is added and incubated for an additional 10 minutes. The reaction is terminated by the addition of 0.5 ml of 2M citric acid. […] Nitric oxide synthetase activity was measured using a binding assay (NOS). The receptors were made by partial purification of material from rat brain membranes. The radioligand used was [^3 H] L-N^G -Nitro-Arginine (NOARG) at a final concentration of 5 nM. Non-specific binding was determined using 100 μM of NOARG. The assay reactions were carried out in 50 mM Tris-HCl (pH 7.4) for 60 minutes at 25° C.

Another data set deals with Monoamine Oxidase A. The note with it: read-out: Inhibition of Monoamine Oxidase A Activity IC50; cited from earlier work.
For data set [5] the following is noted: oil preparations, exposed to light; cited from earlier work.
Another data set has as its system β-adrenergic receptors. To be noted: rat frontal cortex, subchronic (250 mg/kg for 2 weeks; imipramine similar doses); cited from earlier work.
Data set [6] deals with T1, serotonin transporter. The note with it: cited from earlier work.
Another data set addresses GABAA receptor. To be noted: read-out: Ki(nM) GABAA reference compounds; cited from earlier work.
The target of data set [7] is glutamate receptor, NMDA agonist site. To be noted: cited from earlier work.

“And” between values parts separate entries of the source, which are not always exact repeats. Identical values can stand only once. Counter-ions that a name gives are not always drawn. Like-named read-outs stand apart in the source and are kept apart here.

For the molecule `Cc1cc(O)c2c(=O)c3c(O)cc(O)c4c5c(O)cc(O)c6c(=O)c7c(O)cc(CO)c8c1c2c(c34)c(c65)c78` [pseudohypericin], in “stability”, the stability in solution result is on record as “unstable in solution”. Further, the “inhibition of herpes simplex” value with herpes simplex is “inhibit”. Besides, in [1], the “inhibition of HIV-1” value is “inhibit”. In the data set on murine cytomegalovirus, the “activity against murine cytomegalovirus” value is listed as “Activity has also been reported”. Moreover, the “activity against Sindbis virus” value in the data set with Sindbis virus was “Activity has also been reported”. In addition, the “activity against equine infectious anemia virus” value in [2] was “Activity has also been reported”. For the same molecule, the “protein kinase C IC50” value at protein kinase C was 15 µg/mL.

As to `O=c1c(O)c(-c2ccc(O)c(O)c2)oc2cc(O)cc(O)c12` [Quercetin, quercetin], the IC50 was determined as 2400 nM on monoamine oxidase B and 8200 nM at MAOA (read-out: MAOA (concentration)). For the same molecule, at serotonin transporter [3], the “5-HT Reuptake (Table 8, words)” value is “Negative”. For the same molecule, the ADNS in the data set with adenosine receptor was 45% and 27%. For the same molecule, in [4], the “M1 Central” value is listed as 27%. For the same molecule, on MAOA, the “MAOA (Table 8, words)” value is on record as “verified the MAOA activity”. `C[C@@H]1O[C@@H](OC[C@H]2O[C@@H](Oc3c(-c4ccc(O)c(O)c4)oc4cc(O)cc(O)c4c3=O)[C@H](O)[C@@H](O)[C@@H]2O)[C@H](O)[C@H](O)[C@H]1O` [Rutin, rutin]: the “5-HT Reuptake (Table 8, words)” value at serotonin transporter [3] was “Negativee”.

Consider `c1cc2c(cc1C1CCCCC1)c1c3n2CCNC3CCC1` (stereo not shown) [Tetrindole Mesylate], for which, at Monoamine Oxidase A, the IC50 was 46 nM. For the molecule `CCC(C)C(=O)[C@]12C(=O)[C@](CC=C(C)C)(C[C@H](CC=C(C)C)[C@@]1(C)CCC=C(C)C)C(=O)C(CC=C(C)C)=C2O` (stereo partly shown) [Adhyperforin, adhyperforin], the degradation time in data set [5] was 14 days. With `O=c1c2cc(O)c(O)cc2oc2cc(O)c([C@@H]3O[C@H](CO)[C@@H](O)[C@H](O)[C@H]3O)c(O)c12` [Magniferin, mangiferin], on serotonin transporter [3], the “5-HT Reuptake (Table 8, words)” value was “Negative”. Consider `CN(C)CCCN1c2ccccc2CCc2ccccc21` [imipramine], for which, in the data set with β-adrenergic receptors, the “down-regulation of β-adrenergic receptors” value is reported as 25%. Take `c1ccc2nc(N3CCNCC3)ccc2c1` [Quipazine maleate]: the nH at serotonin transporter [6] (Reference Data) was 0.8550. For `O=c1c(O[C@@H]2O[C@H](CO)[C@H](O)[C@H](O)[C@H]2O)c(-c2ccc(O)c(O)c2)oc2cc(O)cc(O)c12` [Hyperoside, hyperoside], the “5-HT Reuptake (Table 8, words)” value at serotonin transporter [3] is listed as “Negative”.

Consider `NCc1cc(=O)[nH]o1` [Muscimol], for which the Ki (commonly a dissociation constant, usually derived from enzyme kinetics or from competition with a known ligand) on GABAA receptor was 4.4 nM. For `Cc1ccc2c(c1)c1c3n2CCNC3CCC1` (stereo not shown) [Pirlindole Mesylate], the IC50 at Monoamine Oxidase A was 16 nM. Regarding `O=[N+]([O-])c1ccc2nc(N3CCNCC3)ccc2c1` [6-NO-Quipazine], on serotonin transporter [6] (Reference Data), the IC50 is 3400 nM and the nH was 0.7400.

Turning to `O=c1[nH]oc2c1CCNC2` [THIP, 4,5,6,7Tetrahydroisoxazolo[5,4c]pyridin3(2H)one], the Ki at GABAA receptor is 25.1 nM. Consider `CN[C@H](CC(=O)O)C(=O)O` [NMDA, N-methyl-D-aspartic acid], for which the Ki in data set [7] (read-out: Ki(nM) NMDA reference compounds) is 9300 nM. On to `CCCC(=CC(N)C(=O)O)CP(=O)(O)O` (stereo not shown) [[^3 H]-CGP 39653], for which the Kd (in general, a measure of binding affinity in units of concentration) in data set [7] (radioligand, read-out: KD (binding affinity)) is 7 nM. Regarding `O=C(O)C1=CCNCC1` [Isoguvacine], on GABAA receptor, the Ki is 9.5 nM. As for `C[C@@H]1O[C@@H](Oc2c(-c3ccc(O)c(O)c3)oc3cc(O)cc(O)c3c2=O)[C@H](O)[C@H](O)[C@H]1O` [Quercitrin, quercitrin], the “5-HT Reuptake (Table 8, words)” value at serotonin transporter [3] is given as “Negative”. Also, the inhibition at 100 µM on serotonin transporter [3] (10^-4, read-out: Sero) came to 39%; at serotonin transporter [3] (10^-4 M, read-out: Sero % inhibition (PharmaPrint range)), 40 ± 20%. In the data set with adenosine receptor, this molecule came in with an ADNS of 45%. Moreover, the “AD,NS % inhibition (PharmaPrint range)” value in the data set with adenosine receptor (10^-4 M) was determined as 45 ± 20%.

In the case of `CC(C)OC(=O)[C@H]1[C@@H](c2ccc([125I])cc2)C[C@@H]2CC[C@H]1N2C` [[^125 I]-RTI-121], the Kd at serotonin transporter [6] (radioligand) was 1.1 nM.
